The text below walks through data of US10758534B2 (Vertex Pharmaceuticals Incorporated, priority 2014, dated 2020).

One may read the EC30 as the concentration at which the effect reaches the 30% level.

A value given as a limit tells only on which side of the number the result lay.

The target in the first assay is T1, F508del (Homo sapiens, UniProt P13569, DEL508-508).
T1 construct: expressed in transfected cells
T1 sequence (P13569 with tags, fused parts or gaps DEL508-508): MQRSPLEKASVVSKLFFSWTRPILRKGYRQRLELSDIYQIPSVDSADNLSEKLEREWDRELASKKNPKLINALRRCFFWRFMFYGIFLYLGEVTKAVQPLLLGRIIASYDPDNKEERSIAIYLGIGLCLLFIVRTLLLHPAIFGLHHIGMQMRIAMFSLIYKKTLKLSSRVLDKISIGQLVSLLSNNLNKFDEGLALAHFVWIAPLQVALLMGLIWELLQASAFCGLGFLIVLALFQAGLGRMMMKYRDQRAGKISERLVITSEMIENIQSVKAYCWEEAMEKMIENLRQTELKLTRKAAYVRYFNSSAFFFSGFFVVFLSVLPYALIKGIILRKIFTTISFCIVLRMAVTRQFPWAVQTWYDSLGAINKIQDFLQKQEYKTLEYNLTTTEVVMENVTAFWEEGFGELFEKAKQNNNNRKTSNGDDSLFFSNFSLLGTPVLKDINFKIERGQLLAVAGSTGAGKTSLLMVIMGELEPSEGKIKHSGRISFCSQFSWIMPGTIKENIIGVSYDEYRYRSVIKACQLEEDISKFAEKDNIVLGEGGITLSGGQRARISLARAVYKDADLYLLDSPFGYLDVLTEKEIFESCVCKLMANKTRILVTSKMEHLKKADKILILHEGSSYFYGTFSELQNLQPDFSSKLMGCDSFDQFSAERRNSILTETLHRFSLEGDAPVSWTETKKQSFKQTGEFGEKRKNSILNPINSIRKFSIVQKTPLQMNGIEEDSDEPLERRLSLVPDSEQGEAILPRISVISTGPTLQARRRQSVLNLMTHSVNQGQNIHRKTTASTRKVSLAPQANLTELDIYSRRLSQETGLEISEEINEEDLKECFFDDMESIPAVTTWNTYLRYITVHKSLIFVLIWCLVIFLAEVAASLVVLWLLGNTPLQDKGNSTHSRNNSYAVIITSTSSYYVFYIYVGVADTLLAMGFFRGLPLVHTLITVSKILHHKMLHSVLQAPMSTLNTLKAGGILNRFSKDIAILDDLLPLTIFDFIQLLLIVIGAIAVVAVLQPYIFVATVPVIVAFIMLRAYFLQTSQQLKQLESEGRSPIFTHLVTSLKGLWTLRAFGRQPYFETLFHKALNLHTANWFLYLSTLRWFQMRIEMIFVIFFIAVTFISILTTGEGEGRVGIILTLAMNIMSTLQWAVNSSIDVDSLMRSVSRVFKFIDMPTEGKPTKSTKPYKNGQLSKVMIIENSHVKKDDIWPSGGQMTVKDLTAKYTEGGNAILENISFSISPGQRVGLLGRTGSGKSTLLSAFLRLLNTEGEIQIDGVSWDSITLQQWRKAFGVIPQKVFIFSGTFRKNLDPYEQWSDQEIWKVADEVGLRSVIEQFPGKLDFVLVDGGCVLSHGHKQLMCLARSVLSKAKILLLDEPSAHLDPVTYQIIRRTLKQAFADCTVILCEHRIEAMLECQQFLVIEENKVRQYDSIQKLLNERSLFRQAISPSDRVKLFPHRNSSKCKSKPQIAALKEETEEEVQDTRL
Description: Protocol 2: FRET membrane potential optical assay (VIPR), identification of correction compounds. Type of assay: cell-based. Particulars: F508del CFTR modulator activity; compounds of Table 1. The method, boiled down: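 FRET read-out (CC2-DMPE donor, DiSBAC2(3) voltage-sensitive acceptor) of membrane depolarization on VIPR II. Corrector candidates incubated 16 hrs at 37° C. with NIH3T3 cells expressing F508del; temperature correction at 27° C. as positive control; stimulation by 10 μM forskolin, 20 μM genistein, chloride-free gluconate bath.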
On to `CC[C@@H](C)Oc1ccn(-c2ccc(C(=O)NS(=O)(=O)c3cccnc3N)c(N3C[C@@H](C)CC3(C)C)n2)n1` [Compound 2705], for which the EC30 result is “+++ (“+++” means <3 uM)”.

Still in this assay, the particulars now being: F508del CFTR modulator activity; compounds of Table 1; read-out: EC30.
Consider `CCOc1cccc(S(=O)(=O)NC(=O)c2cccnc2N2CC(C)CC2(C)C)n1` (stereo not shown) [Compound 2617, N-[(6-ethoxy-2-pyridyl)sulfonyl]-2-(2,2,4-trimethylpyrrolidin-1-yl)pyridine-3-carboxamide], for which the concentration for an effect of 30% (EC30) lay in the range of 3 to 10 µM.

Take `C[C@@H]1CN(c2nc(-n3ccc(C4CC4)n3)ccc2C(=O)NS(=O)(=O)c2cccnc2N)C(C)(C)C1` [Compound 2695]: the concentration for an effect of 30% (EC30) is below 3 µM.

As for `C[C@@H]1CN(c2nc(-c3ccc(OC(F)(F)F)cc3)ccc2C(=O)NS(=O)(=O)c2cccnc2N)C(C)(C)C1` [Compound 2223, N-[(2-amino-3-pyridyl)sulfonyl]-6-[4-(trifluoromethoxy)phenyl]-2-[(4S)-2,2,4-trimethylpyrrolidin-1-yl]pyridine-3-carboxamide], the concentration for an effect of 30% (EC30) was below 3 µM.

With `CCC(C)(C)C(=O)N1CCC=C(c2ccc(C(=O)NS(=O)(=O)c3cccc(N)n3)c(N3C[C@@H](C)CC3(C)C)n2)C1` [Compound 2612, N-[(6-amino-2-pyridyl)sulfonyl]-6-[1-(2,2-dimethylbutanoyl)-3,6-dihydro-2H-pyridin-5-yl]-2-[(4S)-2,2,4-trimethylpyrrolidin-1-yl]pyridine-3-carboxamide], the EC30 was 3 to 10 µM.

Consider `C[C@@H]1CC[C@H](C)N1c1nc(-n2ccc(-c3ccccc3)n2)ccc1C(=O)NS(=O)(=O)C1CC1` [Compound 2676, N-cyclopropylsulfonyl-2-[(2S,5R)-2,5-dimethylpyrrolidin-1-yl]-6-(3-phenylpyrazol-1-yl)pyridine-3-carboxamide], for which the EC30 was below 3 µM.

`Cc1ccc2nc(N3C[C@@H](C)CC3(C)C)c(C(=O)NS(=O)(=O)c3cccc(N)n3)cc2c1` [Compound 2548, N-[(6-amino-2-pyridyl)sulfonyl]-6-methyl-2-[(4S)-2,2,4-trimethylpyrrolidin-1-yl]quinoline-3-carboxamide]: the EC30 was below 3 µM.

Consider `CC1CN(c2ncccc2C(=O)NS(=O)(=O)c2cccc(Oc3ccccc3C(C)C)n2)C(C)(C)C1` (stereo not shown) [Compound 2486, N—[[6-(2-isopropylphenoxy)-2-pyridyl]sulfonyl]-2-(2,2,4-trimethylpyrrolidin-1-yl)pyridine-3-carboxamide], for which the EC30 was below 3 µM.

As for `CC1CN(c2ncccc2C(=O)NS(=O)(=O)c2cccc(NC3CCCC3)n2)C(C)(C)C1` (stereo not shown) [Compound 2053, N—[[6-(cyclopentylamino)-2-pyridyl]sulfonyl]-2-(2,2,4-trimethylpyrrolidin-1-yl)pyridine-3-carboxamide], the EC30 is below 3 µM.

As for `COc1cc(F)cc(-c2ccc(C(=O)NS(=O)(=O)c3ccc[nH]c3=O)c(N3C[C@@H](C)CC3(C)C)n2)c1` [Compound 2527, 6-(3-fluoro-5-methoxy-phenyl)-N-[(2-oxo-1H-pyridin-3-yl)sulfonyl]-2-[(4S)-2,2,4-trimethylpyrrolidin-1-yl]pyridine-3-carboxamide], the EC30 was below 3 µM.

As to `COc1cc(F)ccc1-c1ccc(C(=O)NS(=O)(=O)c2ccc[nH]c2=O)c(N2C[C@@H](C)CC2(C)C)n1` [Compound 2356, 6-(4-fluoro-2-methoxy-phenyl)-N-[(2-oxo-1H-pyridin-3-yl)sulfonyl]-2-[(4S)-2,2,4-trimethylpyrrolidin-1-yl]pyridine-3-carboxamide], the EC30 was below 3 µM.

Consider `C[C@@H]1CN(c2ncccc2C(=O)NS(=O)(=O)N2CCN(CCCc3ccc(Cl)cc3)CC2)C(C)(C)C1` [Compound 2141, N-[4-[3-(4-chlorophenyl)propyl]piperazin-1-yl]sulfonyl-2-[(4S)-2,2,4-trimethylpyrrolidin-1-yl]pyridine-3-carboxamide], for which the EC30 was below 3 µM.

For `CC1CN(c2ncccc2C(=O)NS(=O)(=O)c2cccc(Oc3cc(Cl)cc(Cl)c3)n2)C(C)(C)C1` (stereo not shown) [Compound 2663, N—[[6-(3,5-dichlorophenoxy)-2-pyridyl]sulfonyl]-2-(2,2,4-trimethylpyrrolidin-1-yl)pyridine-3-carboxamide], the EC30 was below 3 µM.

`C[C@@H]1CN(c2nc(-c3ccc(F)cc3O)ccc2C(=O)NS(=O)(=O)c2cccnc2N)C(C)(C)C1` [Compound 2653, N-[(2-amino-3-pyridyl)sulfonyl]-6-(4-fluoro-2-hydroxy-phenyl)-2-[(4S)-2,2,4-trimethylpyrrolidin-1-yl]pyridine-3-carboxamide]: the EC30 is below 3 µM.

Regarding `CC1CN(c2ncccc2C(=O)NS(=O)(=O)c2cccc(OCCN)n2)C(C)(C)C1` (stereo not shown) [Compound 2742], the EC30 lay within 3 to 10 µM.

Take `C[C@@H]1CN(c2nc(C3=CCCN(C(=O)Cc4ccccc4)C3)ccc2C(=O)NS(=O)(=O)c2cccc(NC(=O)Cc3ccccc3)n2)C(C)(C)C1` [Compound 2243, N—[[6-[(2-phenylacetyl)amino]-2-pyridyl]sulfonyl]-6-[1-(2-phenylacetyl)-3,6-dihydro-2H-pyridin-5-yl]-2-[(4S)-2,2,4-trimethylpyrrolidin-1-yl]pyridine-3-carboxamide]: the EC30 was below 3 µM.

Take `CC1CN(c2ncccc2C(=O)NS(=O)(=O)c2cccc(O[C@@H](C)c3ccccc3)n2)C(C)(C)C1` (stereo partly drawn) [Compound 2186, N—[[6-[(1S)-1-phenylethoxy]-2-pyridyl]sulfonyl]-2-(2,2,4-trimethylpyrrolidin-1-yl)pyridine-3-carboxamide]: the concentration for an effect of 30% (EC30) was below 3 µM.

As to `CC1CN(c2ncccc2C(=O)NS(=O)(=O)c2cccc(OCCc3ccccc3)n2)C(C)(C)C1` (stereo not shown) [Compound 2721], the EC30 was below 3 µM.

With `COc1cc(CO)cc(-c2ccc(C(=O)NS(=O)(=O)c3ccc[nH]c3=O)c(N3C[C@@H](C)CC3(C)C)n2)c1` [Compound 2247, 6-[3-(hydroxymethyl)-5-methoxy-phenyl]-N-[(2-oxo-1H-pyridin-3-yl)sulfonyl]-2-[(4S)-2,2,4-trimethylpyrrolidin-1-yl]pyridine-3-carboxamide], the 30% effect concentration (EC30) is 3 to 10 µM.

Turning to `CC1CN(c2ncccc2C(=O)NS(=O)(=O)c2cccc(N3CCCC(Cc4ccccc4)C3)n2)C(C)(C)C1` (stereo not shown) [Compound 2297, N—[[6-(3-benzyl-1-piperidyl)-2-pyridyl]sulfonyl]-2-(2,2,4-trimethylpyrrolidin-1-yl)pyridine-3-carboxamide], the 30% effect concentration (EC30) is below 3 µM.

Still in this assay, the particulars now being: Table 3; compounds of Table 1 as modulators of CFTR activity; protocol not stated.
Consider `COc1ccc(-c2cc(C(=O)NS(=O)(=O)c3ccccc3)n(Cc3c(C)cccc3C)n2)c(OC)c1` [Compound 135, N-(benzenesulfonyl)-5-(2,4-dimethoxyphenyl)-2-[(2,6-dimethylphenyl)methyl]pyrazole-3-carboxamide], for which the EC30 result was “+++ (“+++” means <3 uM)”.

Consider `CC(C)COc1cc(F)cc(-c2ccc(C(=O)NS(=O)(=O)c3cccc(N)n3)c(N3CC4C(C3)C4(C)C)n2)c1` (stereo not shown) [Compound 609, N-[(6-amino-2-pyridyl)sulfonyl]-2-(6,6-dimethyl-3-azabicyclo[3.1.0]hexan-3-yl)-6-(3-fluoro-5-isobutoxy-phenyl)pyridine-3-carboxamide], for which the EC30 entry is “+++ (“+++” means <3 uM)”.

Turning to `CC(C)Oc1ccc(-c2ccc(C(=O)NS(=O)(=O)c3cccc(N)n3)c(N3CCC4(CC3)CC4)n2)cn1` [Compound 578, N-[(6-amino-2-pyridyl)sulfonyl]-2-(6-azaspiro[2.5]octan-6-yl)-6-(6-isopropoxy-3-pyridyl)pyridine-3-carboxamide], the EC30 result is recorded as “+++ (“+++” means <3 uM)”.

Consider `Cc1ccc(Oc2nc3c(cc2C(=O)NS(=O)(=O)c2cccc(N)n2)CCCC3(C)C)c(C)c1` [Compound 15, N-[(6-amino-2-pyridyl)sulfonyl]-2-(2,4-dimethylphenoxy)-8,8-dimethyl-6,7-dihydro-5H-quinoline-3-carboxamide], for which the concentration for an effect of 30% (EC30) result is “+++ (“+++” means <3 uM)”.

For `Cc1cc(C)c(Oc2nc(-c3cc(OCC(C)C)ccc3F)ccc2C(=O)NS(=O)(=O)c2cccc(N)n2)c(C)c1` [Compound 351, N-[(6-amino-2-pyridyl)sulfonyl]-6-(2-fluoro-5-isobutoxy-phenyl)-2-(2,4,6-trimethylphenoxy)pyridine-3-carboxamide], the EC30 entry is “+++ (“+++” means <3 uM)”.

For the compound `Cc1cc(C)c(Oc2nc(C(C)(C)C)cnc2C(=O)NS(=O)(=O)c2cccc(N)c2)c(C)c1` [Compound 141, N-(3-aminophenyl)sulfonyl-5-tert-butyl-3-(2,4,6-trimethylphenoxy)pyrazine-2-carboxamide], the 30% effect concentration (EC30) result is recorded as “+++ (“+++” means <3 uM)”.

Regarding `Cc1cc(C(=O)NS(=O)(=O)c2cccc(N)n2)c(N2CC(C)CC2(C)C)nc1-c1ccc(F)cc1` (stereo not shown) [Compound 763, N-[(6-amino-2-pyridyl)sulfonyl]-6-(4-fluorophenyl)-5-methyl-2-(2,2,4-trimethylpyrrolidin-1-yl)pyridine-3-carboxamide], the EC30 entry is “+++ (“+++” means <3 uM)”.

On to `COc1c(C)cccc1-c1cc(C(=O)NS(=O)(=O)c2cccc(N)c2)n(Cc2c(C)cc(C)cc2C)n1` [Compound 208, N-(3-aminophenyl)sulfonyl-5-(2-methoxy-3-methyl-phenyl)-2-[(2,4,6-trimethylphenyl)methyl]pyrazole-3-carboxamide], for which the EC30 result was “+++ (“+++” means <3 uM)”.

`Cn1ccc2cccc(Cn3nc(C(C)(C)C)cc3C(=O)NS(=O)(=O)c3cccc(N)c3)c21` [Compound 755, N-(3-aminophenyl)sulfonyl-5-tert-butyl-2-[(1-methylindol-7-yl)methyl]pyrazole-3-carboxamide]: the EC30 entry is “++ (“++” means between 3 uM and 10 uM)”.

As to `Cc1cc(C)c(Oc2nc(C(C)(C)C)ccc2C(=O)NS(=O)(=O)c2cccnc2N)c(C)c1` [Compound 235, N-[(2-amino-3-pyridyl)sulfonyl]-6-tert-butyl-2-(2,4,6-trimethylphenoxy)pyridine-3-carboxamide], the EC30 entry is “+++ (“+++” means <3 uM)”.

In the case of `Cc1cc(C)c(Cn2c(C(=O)NS(=O)(=O)c3ccncc3)cc3ccccc32)c(C)c1` [Compound 227, N-(4-pyridylsulfonyl)-1-[(2,4,6-trimethylphenyl)methyl]indole-2-carboxamide], the concentration for an effect of 30% (EC30) entry is “++ (“++” means between 3 uM and 10 uM)”.
